{"source": "patent US5385842A", "about": "“Anthraquinones as inhibitors of sulfide production from sulfate-reducing bacteria” (E. I. Du Pont de Nemours and Company, priority 1993, dated 1995)", "note": "Counter-ions that a name gives are not always drawn."}
{"tested_on": "Desulfovibrio desulfuricans G100A", "assay": "microbe, parasite or virus in culture", "assay_type": "cell-based", "conditions": "not given"}
{"molecule": "CC(C)NC(=N)NC(=N)Nc1cccc2c1C(=O)c1ccccc1C2=O", "note": "[N-[1-(9,10-dihydro-9,10-dioxo)anthracenyl]-N'-(1-methylethyl)imidodicarbonimidic diamide hydrochloride]", "inhibition of sulfide production (in words)": "inhibited sulfide formation"}
{"tested_on": "Desulfovibrio desulfuricans G100A", "assay": "microbe, parasite or virus in culture", "assay_type": "cell-based", "conditions": "10 ppm", "units": {"% Inhib. (inhibition of sulfide production)": "%"}}
{"molecule": "1-Amino-4[4-[[4-chloro-6-[2,3 or 4-sulfophenyl]-amino]-1,3,5-triazin-2-yl]amino]-3-sulfophenyl]-amino]-9,10-dihyro-9,10-dioxo-2-anthracenesulfonic acid [Reactive blue 2]", "% Inhib. (inhibition of sulfide production)": 17.5}
{"tested_on": "Desulfovibrio desulfuricans G100A", "assay": "microbe, parasite or virus in culture", "assay_type": "cell-based", "conditions": "Desulfovibrio desulfuricans, G100A, read-out: % Inhib. (inhibition of sulfide production)", "units": {"inhibition at 10 ppm": "%", "inhibition at 30 ppm": "%", "inhibition at 10 µg/mL": "%"}}
{"molecule": "Nc1c(S(=O)(=O)O)cc(Nc2cccc(S(=O)(=O)CCOS(=O)(=O)O)c2)c2c1C(=O)c1ccccc1C2=O", "note": "[Remazol Brilliant blue R, 1-Amino-9,10-dihydro-9,10-dioxo-4-[[3[[2-(sulfoxy)-ethyl]sulfonyl]phenyl]amino]-2-anthracenesulfonic acid, disodium salt]", "inhibition at 10 ppm": 12.4}
{"molecule": "O=C1c2ccccc2C(=O)c2c1ccc(O[C@@H]1O[C@H](CO[C@@H]3OC[C@@H](O)[C@H](O)[C@H]3O)[C@@H](O)[C@H](O)[C@H]1O)c2O", "note": "[Ruberythric acid, 1-Hydroxy-2-[(6-O-β-D-xylopyranosyl-β-D-glucopyranosyl)oxy]-9,10-anthracenedione]", "inhibition at 10 ppm": 29.7}
{"molecule": "Nc1ccc2c(c1)C(=O)c1ccccc1C2=O", "note": "[2-Aminoanthraquinone]", "inhibition at 10 ppm": 30.4}
{"molecule": "Cc1ccc(Nc2ccc(O)c3c2C(=O)c2ccccc2C3=O)c(S(=O)(=O)O)c1", "note": "[Solway purple R, 2-[(9,10-Dihydro-4-hydroxy-9,10-dioxo-1-anthracenyl)-amino]-5-methyl-benzenesulfonic acid, Na salt]", "inhibition at 30 ppm": 9.1}
{"molecule": "CC(=O)N(C)c1ccc(Nc2cc(S(=O)(=O)O)c(N)c3c2C(=O)c2ccccc2C3=O)cc1", "note": "[Acid blue 41, 4-[[4-(Acetylmethylamino)phenyl]amino]-1-amino-9,10-dihydro-9,10-dioxo-2-anthracenesulfonic acid, Na salt]", "inhibition at 10 ppm": 0}
{"molecule": "Nc1c(S(=O)(=O)O)cc(Nc2ccc(S(=O)(=O)O)c(Nc3nc(Cl)nc(Cl)n3)c2)c2c1C(=O)c1ccccc1C2=O", "note": "[reactive blue 4]", "inhibition at 10 ppm": 7.3}
{"molecule": "Nc1ccc(N)c2c1C(=O)c1ccccc1C2=O", "note": "[1,4-Diaminoanthraquinone]", "inhibition at 10 ppm": 27.5}
{"molecule": "O=C1c2ccccc2C(=O)c2cc(S(=O)(=O)NCc3ccccc3)ccc21", "note": "[N-Benzyl-9,10-dihydro-9,10-dioxo-2-anthracenesulfonamide]", "inhibition at 30 ppm": 3.9}
{"molecule": "CNc1cccc2c1C(=O)c1ccccc1C2=O", "note": "[1-(Methylamino)anthraquinone]", "inhibition at 10 µg/mL": 19.1}
{"molecule": "Cc1ccc(Nc2ccc(Nc3ccc(C)cc3)c3c2C(=O)c2ccccc2C3=O)cc1", "note": "[Solvent green 3, 1,4-Bis[(4-methylphenyl)amino]9,10-anthracenedione]", "inhibition at 30 ppm": 4.3}
{"molecule": "Cc1c(C)c(O)c2c(c1O)C(=O)c1ccccc1C2=O", "note": "[2,3-dimethyl-1,4-dihydroxyanthraquinone]", "inhibition at 30 ppm": 5.7}
{"molecule": "O=C1c2ccccc2C(=O)c2c(O)c(O)cc(O)c21", "note": "[Purpurin, 1,2,4-Trihydroxyanthraquinone]", "inhibition at 30 ppm": 55.7}
{"molecule": "O=C1c2ccccc2C(=O)c2c1cc(S(=O)(=O)O)c(O)c2O", "note": "[Alizarin red S monohydrate, 3,4-Dihydroxy-9,10-dioxo-2-anthracenesulfonic acid]", "inhibition at 10 ppm": 0}
{"molecule": "O=C1c2cccc(S(=O)(=O)O)c2C(=O)c2cccc([N+](=O)[O-])c21", "note": "[5-Nitroanthraquinone-1-sulfonic acid, 9,10-Dihydro-5-nitro-9,10-dioxo-1-anthracenesulfonic acid]", "inhibition at 10 ppm": 66}
{"molecule": "Cc1ccc(C)c2c1C(=O)c1ccccc1C2=O", "note": "[1,4-Dimethylanthraquinone]", "inhibition at 30 ppm": 5.2}
{"molecule": "Nc1c(OCCOc2ccccc2)c(OCCOc2ccccc2)c(N)c2c1C(=O)c1ccccc1C2=O", "note": "[1,4-Diamino-2,3-bis(2-phenoxyethoxy)anthraquinone]", "inhibition at 30 ppm": 7.8}
{"molecule": "N#[N+]c1cccc2c1C(=O)c1ccccc1C2=O", "note": "[1-Aminoanthraquinone diazonium salt]", "inhibition at 30 ppm": 20.8}
{"molecule": "O=C1c2ccccc2C(=O)c2cc(Cl)ccc21", "note": "[2-Chloroanthraquinone]", "inhibition at 30 ppm": 98.7}
{"molecule": "O=C1c2cccc(S(=O)(=O)O)c2C(=O)c2cccc(S(=O)(=O)O)c21", "note": "[Anthraquinone-1,5-disulfonic acid di Na salt hydrate]", "inhibition at 10 ppm": 17.5}
{"molecule": "O=C1c2c(Br)cc(Br)c(O)c2C(=O)c2c(O)c(Br)cc(Br)c21", "note": "[2,4,5,7-Tetrabromochrysazin, 2,4,5,7-Tetrabromo-1,8-dihydroxy-9,10-anthracenedione]", "inhibition at 10 ppm": 40.6}
{"molecule": "O=C1c2ccccc2C(=O)c2c(Nc3ccc(S(=O)(=O)O)cc3)c(Nc3ccc(S(=O)(=O)O)cc3)cc(O)c21", "note": "[Alizarin blue black B, 1,2-Bis[(4-sulfophenyl)amino]-4-hydroxy-anthraquinone]", "inhibition at 10 ppm": 17.5}
{"molecule": "COc1ccc(N)c2c1C(=O)c1ccccc1C2=O", "note": "[1-Amino-4-methoxyanthraquinone]", "inhibition at 10 ppm": 57.1}
{"molecule": "CNc1ccc(NC)c2c1C(=O)c1ccccc1C2=O", "note": "[1,4-Bis(methylamino)-anthraquinone]", "inhibition at 30 ppm": 8.6}
{"molecule": "Cc1ccc(Nc2cccc3c2C(=O)c2cccc(Nc4ccc(C)cc4S(=O)(=O)O)c2C3=O)c(S(=O)(=O)O)c1", "note": "[Alizarin violet 3R, 2,2'-[(9,10-Dihydro-9,10-dioxo-1,5-anthracenediyl)-diimino]bis[5-methylbenzenesulfonic acid], di Na salt]", "inhibition at 10 ppm": 30.9}
{"molecule": "CC(C)Nc1ccc(NC(C)C)c2c1C(=O)c1ccccc1C2=O", "note": "[1,4-Di(isopropylamino)anthraquinone, 1,4-Bis[(1-methylethyl)amino]-9,10-anthracenedione]", "inhibition at 30 ppm": 5}
{"molecule": "Nc1ccc2c(c1N)C(=O)c1ccccc1C2=O", "note": "[1,2-Diaminoanthraquinone]", "inhibition at 10 ppm": 28.9}
{"molecule": "O=C1c2ccccc2C(=O)c2c([N+](=O)[O-])ccc(Nc3ccc([N+](=O)[O-])c4c3C(=O)c3ccccc3C4=O)c21", "note": "[1,1'-Iminobis(4-nitro-9,10-anthracenedione)]", "inhibition at 30 ppm": 5.7}
{"molecule": "O=C(Nc1ccc(Nc2ccc(NC(=O)c3ccccc3)c3c2C(=O)c2ccccc2C3=O)c2c1C(=O)c1ccccc1C2=O)c1ccccc1", "note": "[4,4'-Dibenzamido-1,1'-dianthrimide, N,N'-[Iminobis(9,10-dihydro-9,10-dioxo-4,1-anthracenediyl)]bisbenzamide]", "inhibition at 30 ppm": 5.2}
{"molecule": "O=C(O)c1ccc2c(c1)C(=O)c1ccccc1C2=O", "note": "[Anthraquinone-2-carboxylic acid]", "inhibition at 10 µg/mL": 22.6}
{"molecule": "Nc1c(Br)cc(O)c2c1C(=O)c1ccccc1C2=O", "note": "[1-Amino-2-bromo-4-hydroxyanthraquinone]", "inhibition at 30 ppm": 6.5}
{"molecule": "Nc1ccc(N)c2c1C(=O)c1cccc([N+](=O)[O-])c1C2=O", "note": "[1,4-Diamino-5-nitroanthraquinone]", "inhibition at 30 ppm": "2.7 to 3"}
{"molecule": "Nc1cccc2c1C(=O)c1cccc(Cl)c1C2=O", "note": "[5-Chloro-1-aminoanthraquinone]", "inhibition at 10 ppm": 57.1}
{"molecule": "O=C1c2ccccc2C(=O)c2c(SBr)cccc21", "note": "[1-(Bromothio)anthraquinone]", "inhibition at 30 ppm": 6.5}
{"molecule": "Cc1cc(O)c2c(c1O)C(=O)c1c(O)ccc(O)c1C2=O", "note": "[Cynodontin, 1,4,5,8-Tetrahydroxy-2-methyl-9,10-anthracenedione]", "inhibition at 10 ppm": 34.4}
{"molecule": "O=C(Nc1cccc2c1C(=O)c1cccc(NC(=O)c3ccccc3)c1C2=O)c1ccccc1", "note": "[1,5-Dibenzamidoanthraquinone, N,N'-(9,10-Dihydro-9,10-dioxo-1,5-anthracenediyl)-bisbenzamide]", "inhibition at 30 ppm": 0}
{"molecule": "COc1cc(N)c2c(c1N)C(=O)c1ccccc1C2=O", "note": "[Disperse red 11, 1,4-Diamino-2-methoxyanthraquinone]", "inhibition at 30 ppm": 0}
{"molecule": "Cc1ccc2c(c1[N+](=O)[O-])C(=O)c1ccccc1C2=O", "note": "[2-Methyl-1-nitroanthraquinone]", "inhibition at 30 ppm": 50}
{"molecule": "Cc1ccc2c(c1)C(=O)c1ccccc1C2=O", "note": "[2-Methylanthraquinone]", "inhibition at 30 ppm": 10.4}
{"molecule": "Cc1cc(O)c2c(c1)C(=O)c1cccc(O)c1C2=O", "note": "[Chrysophanic acid, 1,8-Dihydroxy-3-methylanthraquinone]", "inhibition at 30 ppm": 27.9}
{"molecule": "CC(=O)Nc1ccc(Nc2cc(S(=O)(=O)O)c(N)c3c2C(=O)c2ccccc2C3=O)cc1", "note": "[Acid blue 40, 4-[[4-(Acetylamino)phenyl]amino]-1-amino-9,10-dihydro-9,10-dioxo-2-anthracenesulfonic acid, Na salt]", "inhibition at 10 ppm": 12.5}
{"molecule": "O=C(Nc1ccc(Cl)c2c1C(=O)c1ccccc1C2=O)c1ccccc1", "note": "[1-Benzamido-4-chloroanthraquinone, N-(4-Chloro-9,10-dihydro-9,10-dioxo-1-anthracenyl)-benzamide]", "inhibition at 30 ppm": 8.6}
{"molecule": "CNc1ccc(Br)c2c1C(=O)c1ccccc1C2=O", "note": "[1-Bromo-4-(methylamino)anthraquinone]", "inhibition at 30 ppm": 0}
{"molecule": "O=C1c2ccccc2C(=O)c2c(O)c(S(=O)(=O)O)cc(O)c21", "note": "[9,10-Dihydro-1,4-dihydroxy-9,10-dioxo-2-anthracenesulfonic acid]", "inhibition at 30 ppm": 7.8}
{"molecule": "O=C1c2ccccc2C(=O)c2c1cccc2-c1cccc2c1C(=O)c1ccccc1C2=O", "note": "[1,1'-Bianthraquinone, [1,1'-Bianthracene]-9,9'10,10'-tetrone]", "inhibition at 30 ppm": 12.9}
{"molecule": "O=C1c2ccc(O)c(O)c2C(=O)c2c(O)ccc(O)c21", "note": "[Quinalizarin, 1,2,5,8-Tetrahydroxyanthraquinone]", "inhibition at 10 ppm": 80}
{"molecule": "Cc1cc(O)c2c(c1)C(=O)c1cc(O[C@@H]3OC[C@](O)(CO)[C@H]3O)cc(O)c1C2=O", "note": "[Frangulin B, 3-(D-apio-beta-D-Furanosyloxy)-1,8-dihydroxy-6-methyl-9,10-anthracenedione]", "inhibition at 30 ppm": 57.1}
{"molecule": "Nc1c(O)c(S(=O)(=O)O)c(O)c2c1C(=O)c1ccccc1C2=O", "note": "[Nuclear fast red, 4-Amino-9,10-dihydro-1,3-dihydroxy-9,10-dioxo-2-anthracenesulfonic acid, monosodium salt]", "inhibition at 10 ppm": 20.4}
{"molecule": "O=C1c2ccc(O)cc2C(=O)c2c1cc(S(=O)(=O)O)c(O)c2O", "note": "[Alizarin rubinol, 9,10-Dihydro-3,4,6-trihydroxy-9,10-dioxo-2-anthracenesulfonic acid]", "inhibition at 30 ppm": 0}
{"tested_on": "Desulfovibrio desulfuricans G100A", "assay": "microbe, parasite or virus in culture", "assay_type": "cell-based", "conditions": "Table III, Example 3", "units": {"% inhibition of sulfide formation": "%"}}
{"molecule": "CC(C)NC(=N)NC(=N)Nc1cccc2c1C(=O)c1ccccc1C2=O", "note": "[N-[1-(9,10-dihydro-9,10-dioxo)anthracenyl]-N'-(1-methylethyl)imidodicarbonimidic diamide hydrochloride]", "% inhibition of sulfide formation": 83}
